{"source": "paper PMC5598073", "about": "“A novel and efficient fungal delignification strategy based on versatile peroxidase for lignocellulose bioconversion” (Biotechnology for Biofuels, 2017)", "key": {"[1]": {"test_system": "T1, Lac", "T1 construct": "native secreted enzyme purified from solid corn stover cultures; single band", "assay": "spectrophotometric oxidation, […] nm", "assay_type": "biochemical, Physisporinus vitreus", "details": "50 mM malonate pH 4.5; read-out: K m (mol L^-1) / Lac"}, "[2]": {"test_system": "T2, VP", "T2 construct": "native secreted enzyme purified from solid corn stover cultures; single band", "assay": "spectrophotometric oxidation, […] nm", "assay_type": "biochemical, Physisporinus vitreus", "details": "50 mM malonate pH 4.5, 0.1 mM H2O2, with or without 1 mM MnSO4 (not told per substrate); read-out: K m (mol L^-1) / VP"}, "[3]": {"test_system": "VP", "details": "read-out: K m (mol L^-1) / VP; 50 mM malonate pH 4.5, 0.1 mM H2O2, with or without 1 mM MnSO4 (not told per substrate)"}, "[4]": {"test_system": "Lac", "details": "read-out: K m (mol L^-1) / Lac; 50 mM malonate pH 4.5"}, "[5]": {"test_system": "T1, Lac", "assay": "spectrophotometric oxidation, […] nm", "assay_type": "biochemical, Physisporinus vitreus", "details": "50 mM malonate pH 4.5; read-out: K m (mol L^-1) / Lac", "remark": "listed apart in the source"}, "[6]": {"test_system": "T2, VP", "assay": "spectrophotometric oxidation, […] nm", "assay_type": "biochemical, Physisporinus vitreus", "details": "50 mM malonate pH 4.5, 0.1 mM H2O2, with or without 1 mM MnSO4 (not told per substrate); read-out: K m (mol L^-1) / VP", "remark": "listed apart in the source"}, "[7]": {"test_system": "T2, VP", "assay": "spectrophotometric oxidation, […] nm", "assay_type": "biochemical, Physisporinus vitreus", "details": "50 mM malonate pH 4.5, 0.1 mM H2O2, with or without 1 mM MnSO4 (not told per substrate)"}, "[8]": {"test_system": "T2, VP", "assay": "spectrophotometric oxidation, […] nm", "assay_type": "biochemical, Physisporinus vitreus", "details": "50 mM malonate pH 4.5, 0.1 mM H2O2, with or without 1 mM MnSO4 (not told per substrate)", "remark": "listed apart in the source"}}, "note": "Where two headings read alike, the source gives them in different places.", "data": [{"smiles": "Cc1cccc(C)c1O", "note": "[2,6-DMP]", "values": [{"measurement": "Km", "setting": "[1]", "value": 280, "unit": "µM"}, {"measurement": "Km", "setting": "[2]", "value": 44, "unit": "µM"}]}, {"smiles": "CCn1c(=NN=c2sc3cc(S(=O)(=O)O)ccc3n2CC)sc2cc(S(=O)(=O)O)ccc21", "note": "[ABTS]", "values": [{"measurement": "Km", "setting": "[3]", "value": 35, "unit": "µM"}, {"measurement": "Km", "setting": "[4]", "value": 13, "unit": "µM"}]}, {"smiles": "COc1ccccc1O", "note": "[Guaiacol]", "values": [{"measurement": "Km", "setting": "[5]", "value": 900, "unit": "µM"}, {"measurement": "Km", "setting": "[6]", "value": 130, "unit": "µM"}]}, {"smiles": "Nc1c(N=Nc2ccc(S(=O)(=O)CCOS(=O)(=O)O)cc2)c(S(=O)(=O)O)cc2cc(S(=O)(=O)O)c(N=Nc3ccc(S(=O)(=O)CCOS(=O)(=O)O)cc3)c(O)c12", "note": "[RB5]", "values": [{"measurement": "Km", "setting": "[7]", "value": 14.2, "unit": "µM"}]}, {"smiles": "COc1ccc(CO)cc1OC", "note": "[VA]", "values": [{"measurement": "Km", "setting": "[8]", "value": 213, "unit": "µM"}]}]}
